Experimental data published in publication PMC11593814, “Novel Basidiomycetous Alcohol Oxidase from Cerrena unicolor—Characterisation, Kinetics, and Proteolytic Modifications” (International Journal of Molecular Sciences, 2024).

system: T1, alcohol oxidase (AOX) from Cerrena unicolor FCL139; assay: acetylacetone assay ([…],5-diacetyl-1,4-dihydrolutidine), Michaelis-Menten non-linear fit; format: biochemical; conditions: semi-purified native enzyme; substrate 1-100 mM; pH and temperature of the kinetics not given
T1 construct: native, semi-purified from mycelium (ammonium sulphate, HIC, SEC); octamer stated as typical; no tag

SMILES	Km [mM]
COc1ccc(CO)cc1OC [Veratryl alcohol]	31 ± 4
OC[C@H](O)C(O)[C@@H](O)CO [L-arabinitol]	37 ± 3
CO [Methanol]	13 ± 1
